Test results reported in patent US7157083B2, “Compositions and methods for treating retroviral infections” (priority 1998, dated 2007).

Test system: clinical isolate ROJO (low passage HIV-1) in human PBMCs
Assay: Study 1 PBMC assay: reverse transcriptase activity after ROJO infection (Treatments A, B, C)
Type: cell-based
Description: Percent virus control (% VC) in the following tables is the mean RT activity (cpm) as a percentage of a virus control. Percent cell control (% CC) is the mean XTT absorbance as a percentage of a cell control.
Peripheral blood monocular cells (PBMCs) are obtained from normal hepatitis and HIV-1 negative donors by ficoll hypaque gradient separation. Briefly, anti-coagulated blood is diluted 1:1 with Dulbecco's phosphate buffered saline without Ca^++ and Mg^++ (PBS) and layered over 14 mL of Lymphocyte separation media in a 50 ml centrifuge tube. Tubes are then centrifuged for 30 minutes at 600× g. Banded PBLs are gently aspirated from the resulting interface and subsequently washed 2× with PBS by low speed centrifugation. The mononuclear cells are counted, viability determined by Trypan Blue dye exclusion and resuspended in RPM1640 medium supplemented with 15% FBS (heat inactivated), 2 mM L-glutamine, 100 U/mL penicillin, 100 μg/mL streptomycin, and 10 μg/mL gentamycin with 2 μg/mL phytohemagluttin (PHA) at 1×10^6 cells/mL. The cells are cultured for 48 to 72 h at 37° C., 5% CO2 Following incubation, cells are collected by centrifugation, washed and resuspended in RPMI 1640 supplemented with 15% FBS (heat inactivated), 2 Mm L-glutamine, 100 U/mL penicillin, 100 μg/mL streptomycin, and 10 μg/mL gentamycin with 20 U/mL recombinant IL-2 (R & D Systems, Minneapolis, Minn.). IL-2 is included in the culture medium to maintain the cell division initiated by the PHA mitogenic stimulation. The cultures are then maintained until use by ½ culture volume change with fresh IL-2 containing medium every 3 days.
Human peripheral blood mononuclear cells from a minimum of 2 donors, that have been blasted with PHA and IL-2, are counted, viability determined by Trypan Blue dye exclusion and mixed in equal ratios. Pooled donors are used to minimize the variability observed between individual donors which results from quantitative and qualitative differences in HIV infection and overall response to the PHA and IL-2 of primary lymphocyte populations. The cells are resuspended at 1×10^6 cells/mL in RPMI 1640 without phenol red supplemented with 15% Fetal Bovine Serum (heat inactivated), 2 mM L-glutamine, 100 U/mL penicillin, 100 μg/mL streptomycin, 10 μg/mL gentamycin and IL-2 (20 U/mL, R&D Systems, Minneapolis, Minn.). Fifty microliters of cells are then distributed to the inner 60 wells of a 96 well round bottom Microtiter culture plate in a standard format developed by the Infectious Disease Research department of Southern Research Institute. Each plate contains cell control wells (cells only), virus control wells (cell plus virus), and experimental wells (drug plus cells plus virus).
Using an in-house computer program, IC50 (50% inhibition of virus replication), TC50 (50% reduction in cell viability) and a therapeutic index (TI, […]) were determined. AZT was used as a relevant positive control compound for the individual assays.
This study compares the ability of hyaluronidase to AZT to lower viral replication as measured by reverse transcriptase levels. RT was measured on days 7, 14, and 21. Three different treatment regimens were used in the comparative study (Treatments A, B and C).
Treatment A. Normal mixed PHA blasted human PBMCs (5×10e4/well) were pretreated with drug every 48 hours for 3 doses. On day 6 of pretreatment, cells were infected with clinical isolate ROJO. 48 hours post infection, treatment with drugs continued for an additional 3 treatments. Samples for assay were collected on D7 (day 7), 14, 21, post infection, frozen and later analyzed for reverse transcriptase.
Treatment B. Normal mixed PHA blasted human PBMCs (as above) were plated in 96 wells and allowed to incubate for 48 hours (cells were set at same time as treatment A from same pool). Drug pretreatment started on day 2 and was repeated on day 4. On day 6, cell were infected as in treatment A, with concurrent addition of drug for a total of 3 treatments. […]

Substance: Hyaluronidase
- RT activity % VC (Treatment A, 0.00165 units/mL, Day 7): 131.1%
- RT activity % VC (Treatment A, 0.00165 units/mL, Day 14): 21.6%
- RT activity % VC (Treatment A, 0.00165 units/mL, Day 21): 24.4%
- RT activity % VC (Treatment A, 0.00515 units/mL, Day 7): 49.5%
- RT activity % VC (Treatment A, 0.00515 units/mL, Day 14): 14.9%
- RT activity % VC (Treatment A, 0.00515 units/mL, Day 21): 5.1%
- RT activity % VC (Treatment A, 0.01611 units/mL, Day 7): 1.1%
- RT activity % VC (Treatment A, 0.01611 units/mL, Day 14): 0.1%
- RT activity % VC (Treatment A, 0.01611 units/mL, Day 21): 0.6%
- RT activity % VC (Treatment A, 0.05033 units/mL, Day 7): 1.0%
- RT activity % VC (Treatment A, 0.05033 units/mL, Day 14): 0.4%
- RT activity % VC (Treatment A, 0.05033 units/mL, Day 21): 0.9%
- RT activity % VC (Treatment A, 0.15729 units/mL, Day 7): 0.7%
- RT activity % VC (Treatment A, 0.15729 units/mL, Day 14): 0.2%
- RT activity % VC (Treatment A, 0.15729 units/mL, Day 21): 0.7%
- RT activity % VC (Treatment A, 0.49152 units/mL, Day 7): 1.0%
- RT activity % VC (Treatment A, 0.49152 units/mL, Day 14): 0.3%
- RT activity % VC (Treatment A, 0.49152 units/mL, Day 21): 0.4%
- RT activity % VC (Treatment A, 1.536 units/mL, Day 7): 1.6%
- RT activity % VC (Treatment A, 1.536 units/mL, Day 14): 0.2%
- RT activity % VC (Treatment A, 1.536 units/mL, Day 21): 1.2%
- RT activity % VC (Treatment A, 4.8 units/mL, Day 7): 1.1%
- RT activity % VC (Treatment A, 4.8 units/mL, Day 14): 0.3%
- RT activity % VC (Treatment A, 4.8 units/mL, Day 21): 1.0%
- RT activity % VC (Treatment A, 15 units/mL, Day 7): 1.1%
- RT activity % VC (Treatment A, 15 units/mL, Day 14): 0.7%
- RT activity % VC (Treatment A, 15 units/mL, Day 21): 1.1%
- RT activity % VC (Treatment B, 0.00165 units/mL, Day 7): 47.1%
- RT activity % VC (Treatment B, 0.00165 units/mL, Day 14): 10.5%
- RT activity % VC (Treatment B, 0.00165 units/mL, Day 21): 5.1%
- RT activity % VC (Treatment B, 0.00515 units/mL, Day 7): 6.0%
- RT activity % VC (Treatment B, 0.00515 units/mL, Day 14): 1.0%
- RT activity % VC (Treatment B, 0.00515 units/mL, Day 21): 0.8%
- RT activity % VC (Treatment B, 0.01611 units/mL, Day 7): 3.6%
- RT activity % VC (Treatment B, 0.01611 units/mL, Day 14): 0.6%
- RT activity % VC (Treatment B, 0.01611 units/mL, Day 21): 0.2%
- RT activity % VC (Treatment B, 0.05033 units/mL, Day 7): 3.0%
- RT activity % VC (Treatment B, 0.05033 units/mL, Day 14): 0.4%
- RT activity % VC (Treatment B, 0.05033 units/mL, Day 21): 0.9%
- RT activity % VC (Treatment B, 0.15729 units/mL, Day 7): 2.8%
- RT activity % VC (Treatment B, 0.15729 units/mL, Day 14): 0.4%
- RT activity % VC (Treatment B, 0.15729 units/mL, Day 21): 0.5%
- RT activity % VC (Treatment B, 0.49152 units/mL, Day 7): 4.9%
- RT activity % VC (Treatment B, 0.49152 units/mL, Day 14): 0.4%
- RT activity % VC (Treatment B, 0.49152 units/mL, Day 21): 0.3%
- RT activity % VC (Treatment B, 1.536 units/mL, Day 7): 4.1%
- RT activity % VC (Treatment B, 1.536 units/mL, Day 14): 0.2%
- RT activity % VC (Treatment B, 1.536 units/mL, Day 21): 0.4%
- RT activity % VC (Treatment B, 4.8 units/mL, Day 7): 1.9%
- RT activity % VC (Treatment B, 4.8 units/mL, Day 14): 0.5%
- RT activity % VC (Treatment B, 4.8 units/mL, Day 21): 1.2%
- RT activity % VC (Treatment B, 15 units/mL, Day 7): 3.4%
- RT activity % VC (Treatment B, 15 units/mL, Day 14): 0.5%
- RT activity % VC (Treatment B, 15 units/mL, Day 21): 0.7%
- RT activity % VC (Treatment C, 0.00165 units/mL, Day 7): 104.0%
- RT activity % VC (Treatment C, 0.00165 units/mL, Day 14): 42.4%
- RT activity % VC (Treatment C, 0.00165 units/mL, Day 21): 23.5%
- RT activity % VC (Treatment C, 0.00515 units/mL, Day 7): 100.4%
- RT activity % VC (Treatment C, 0.00515 units/mL, Day 14): 26.0%
- RT activity % VC (Treatment C, 0.00515 units/mL, Day 21): 13.2%
- RT activity % VC (Treatment C, 0.01611 units/mL, Day 7): 3.9%
- RT activity % VC (Treatment C, 0.01611 units/mL, Day 14): 1.8%
- RT activity % VC (Treatment C, 0.01611 units/mL, Day 21): 1.0%
- RT activity % VC (Treatment C, 0.05033 units/mL, Day 7): 3.4%
- RT activity % VC (Treatment C, 0.05033 units/mL, Day 14): 0.4%
- RT activity % VC (Treatment C, 0.05033 units/mL, Day 21): 0.6%
- RT activity % VC (Treatment C, 0.15729 units/mL, Day 7): 3.0%
- RT activity % VC (Treatment C, 0.15729 units/mL, Day 14): 0.2%
- RT activity % VC (Treatment C, 0.15729 units/mL, Day 21): 0.8%
- RT activity % VC (Treatment C, 0.49152 units/mL, Day 7): 4.1%
- RT activity % VC (Treatment C, 0.49152 units/mL, Day 14): 0.2%
- RT activity % VC (Treatment C, 0.49152 units/mL, Day 21): 0.4%
- RT activity % VC (Treatment C, 1.536 units/mL, Day 7): 2.7%
- RT activity % VC (Treatment C, 1.536 units/mL, Day 14): 0.4%
- RT activity % VC (Treatment C, 1.536 units/mL, Day 21): 0.6%
- RT activity % VC (Treatment C, 4.8 units/mL, Day 7): 4.6%
- RT activity % VC (Treatment C, 4.8 units/mL, Day 14): 0.4%
- RT activity % VC (Treatment C, 4.8 units/mL, Day 21): 0.7%
- RT activity % VC (Treatment C, 15 units/mL, Day 7): 3.2%
- RT activity % VC (Treatment C, 15 units/mL, Day 14): 0.6%
- RT activity % VC (Treatment C, 15 units/mL, Day 21): 0.7%
- reduction in viral replication as measured by reverse transcriptase, compared to AZT (Treatments A, B and C, days 7, 14, and 21): greater reduction in viral replication
